This series in a line: viscosity of aqueous glycerol solutions (DV1 Viscometer). The format is physicochemical. The note with it: room temperature (23.5° C.), SC4-21 spindle. An excerpt: Specifically, larger differences in the viscosity between the oil and the aqueous phases will hinder the emulsion formation and promote phase separation. The formulations disclosed herein thus preferably include viscosity modifying agents to increase the viscosity of the aqueous phase and improve the emulsion stability by diminishing the rise of the oil droplets to the surface. Table 3 contain examples of increasing the viscosity of an aqueous solution using glycerol/glycerine. Viscosity modifiers are added to the aqueous phase to increase the viscosity in and attempt to mitigate the difference in viscosity between the oil phase and the aqueous phases and thus promote emulsion stability.

As to `OCC(O)CO` [100%, glycerol], the Viscosity is 905.0 cP.

These data come from patent US12303501B2, “Lipophilic active oral film formulation and method of making the same” (INTELGENX CORP., priority 2018, dated 2025).
